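Following 48 hours of exposure in 96-well plates, responses at five concentrations were used to interpolate endpoints linearly. GI50 is the concentration that inhibits growth by half. At the TGI there is no net growth.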

Results on 2 compounds are retold here after PubChem BioAssay (NCI).

Among the test systems are SF-539 CNS; ACHN renal; NCI-H522 lung; NCI/ADR-RES ovarian; DU-145 prostate; SNB-75 CNS; TK-10 renal; KM12 colon; A549 NSCLC; MDA-MB-231 breast.
Experiment in all cases: NCI tumour cell line growth inhibition, 48 h

For `N=c1ccn(O)cc1/C=C1/C(=O)Nc2ccccc21`, the GI50 in the assay with SF-539 CNS, in the assay on ACHN renal, with NCI-H522 lung, in the assay with NCI/ADR-RES ovarian, with DU-145 prostate and in the assay on SNB-75 CNS was over 100 µM throughout. Besides, the GI50 in the assay with TK-10 renal, in the assay with KM12 colon, in the assay with A549 NSCLC and in the assay with MDA-MB-231 breast was over 100 µM each time. Further, the TGI in the assay with SF-539 CNS, in the assay on ACHN renal, in the assay on NCI-H522 lung, with NCI/ADR-RES ovarian, with DU-145 prostate and in the assay with SNB-75 CNS was over 100 µM each time. Besides, the TGI in the assay on TK-10 renal, in the assay on KM12 colon, with A549 NSCLC and in the assay on MDA-MB-231 breast was over 100 µM in each case.
For `[N-]=[N+]=NCCCCCC(=O)OC(C(=O)c1ccccc1)c1cccc(OCC(=O)NCCOCCOCCNC(=O)CCCC[C@@H]2SC[C@@H]3NC(=O)N[C@@H]32)c1` (stereo not given in full), the GI50 is 25.3 µM in the assay on SF-539 CNS; over 100 µM in the assay on ACHN renal; over 100 µM in the assay on NCI-H522 lung; over 100 µM in the assay with NCI/ADR-RES ovarian; over 100 µM with DU-145 prostate; 95.8 µM in the assay on SNB-75 CNS. For the same compound, the GI50 was over 100 µM with TK-10 renal, over 100 µM with KM12 colon, over 100 µM in the assay on A549 NSCLC and 44 µM in the assay with MDA-MB-231 breast. In addition, the TGI with SF-539 CNS was 72.7 µM; in the assay on ACHN renal, over 100 µM; in the assay on NCI-H522 lung, over 100 µM; in the assay with NCI/ADR-RES ovarian, over 100 µM; in the assay on DU-145 prostate, over 100 µM; in the assay on SNB-75 CNS, over 100 µM. In addition, the TGI in the assay with TK-10 renal, in the assay with KM12 colon, in the assay on A549 NSCLC and with MDA-MB-231 breast was over 100 µM throughout.
